25 compounds from publication PMC11201660 (Biomolecules, 2024) can be followed below.

Where only a bound is given, the exact number is not on record here.

A short description of series [1]: MTS cytotoxicity assay, 24-h exposure of liver cell line. Conditions: human, HepG2 cells, IC50 HepG2 (cytotoxicity), tested 3 to 400 μM. In general terms: Formazan colour is commonly taken as a measure of viable cells.
In another series the target is T1, human AChE (Homo sapiens, UniProt P22303).
T1 construct: gift from Dr. Zoran Radić, Skaggs School of Pharmacy and Pharmaceutical Sciences, UCSD
The series can be described thus: biochemical. The series is classed as biochemical.

Another series concerns the target human BChE (Homo sapiens, UniProt P06276). The series can be described thus: biochemical. It counts as biochemical.
For the next series, the system named is HepG2. In words: MTS cytotoxicity assay, 24-h exposure of liver cell line. As to conditions: read-out: IC50 HepG2 (cytotoxicity), tested 3 to 400 μM.

Sequence of human BChE (P06276 29-602): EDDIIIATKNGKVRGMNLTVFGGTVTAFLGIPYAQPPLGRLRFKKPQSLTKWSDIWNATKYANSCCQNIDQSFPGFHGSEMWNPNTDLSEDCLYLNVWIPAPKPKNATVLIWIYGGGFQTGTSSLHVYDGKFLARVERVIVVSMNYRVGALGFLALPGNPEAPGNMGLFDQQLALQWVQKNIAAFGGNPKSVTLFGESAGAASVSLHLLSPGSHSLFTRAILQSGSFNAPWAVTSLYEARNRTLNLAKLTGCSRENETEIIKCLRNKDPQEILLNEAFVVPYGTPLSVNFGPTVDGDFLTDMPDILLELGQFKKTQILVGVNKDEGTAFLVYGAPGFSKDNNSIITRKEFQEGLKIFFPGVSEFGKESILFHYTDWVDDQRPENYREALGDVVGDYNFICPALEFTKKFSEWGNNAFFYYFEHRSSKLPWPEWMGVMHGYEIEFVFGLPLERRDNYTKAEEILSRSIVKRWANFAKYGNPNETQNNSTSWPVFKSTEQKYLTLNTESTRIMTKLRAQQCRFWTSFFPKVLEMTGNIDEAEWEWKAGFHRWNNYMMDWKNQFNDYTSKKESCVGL
T1 sequence (P22303 32-614): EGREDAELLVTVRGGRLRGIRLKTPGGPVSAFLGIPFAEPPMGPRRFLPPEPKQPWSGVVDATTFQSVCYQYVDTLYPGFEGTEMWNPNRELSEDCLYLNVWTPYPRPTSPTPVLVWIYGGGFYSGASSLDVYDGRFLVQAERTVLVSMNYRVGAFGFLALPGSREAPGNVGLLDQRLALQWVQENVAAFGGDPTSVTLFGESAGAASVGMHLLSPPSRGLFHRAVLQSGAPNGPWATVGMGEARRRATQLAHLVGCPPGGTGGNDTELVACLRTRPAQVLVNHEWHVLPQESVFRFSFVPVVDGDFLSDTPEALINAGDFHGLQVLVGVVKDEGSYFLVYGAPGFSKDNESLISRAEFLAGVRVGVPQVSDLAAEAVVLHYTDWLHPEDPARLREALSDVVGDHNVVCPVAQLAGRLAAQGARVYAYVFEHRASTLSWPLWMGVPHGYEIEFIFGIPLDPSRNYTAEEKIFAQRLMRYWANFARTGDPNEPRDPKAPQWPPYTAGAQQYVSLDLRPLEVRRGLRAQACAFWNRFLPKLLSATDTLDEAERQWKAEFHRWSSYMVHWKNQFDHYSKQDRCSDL

In general, IC50 refers to the concentration needed to halve the response being measured. What is called Ki is a dissociation constant, usually derived from enzyme kinetics or from competition with a known ligand. Lower therefore signals a stronger hold on the target. In the case of `O/N=C\c1ccc(/C=C/c2ccccc2O)s1` [trans,anti-4, (Z)-5-((E)-2-hydroxystyryl)thiophene-2-carbaldehyde oxime], the IC50 at 24 h in series [1] stood at 191 ± 21 µM. Besides, the figures for the Ki on human AChE and at human BChE were 258 ± 90 µM and 6.5 ± 0.5 µM, respectively.
Compound `CCCn1cc(C=Cc2ccc(C=NO)s2)nn1` [trans-7] gave a half-inhibitory concentration (IC50) at 24 h in series [1] above 400 µM. The inhibitory constant (Ki) at human AChE was 147 ± 43 µM; at human BChE it was 49 ± 11 µM.
In the case of `N#Cc1ccc(/C=C\c2ccsc2/C=N/O)cc1` [cis,syn-21, 4-((Z)-2-(2-((E)-(hydroxyimino)methyl)thiophen-3-yl)vinyl)benzonitrile], the half-maximal inhibitory concentration (IC50) with HepG2 is 118 ± 46 µM. In series [1], this compound had an IC50 at 24 h of at most 100 µM. For the same compound, the Ki amounted to 171 ± 68 µM on human AChE and 59 ± 8 µM at human BChE.
Turning to `O=[N+]([O-])c1ccc(-n2cc(C=Cc3ccc(C=NO)s3)nn2)cc1` [trans-8, 5-(2-(1-(4-nitrophenyl)-1H-1,2,3-triazol-4-yl)vinyl)thiophene-2-carbaldehyde oxime], the half-inhibitory concentration (IC50) at 24 h in series [1] was above 400 µM. The inhibition constant Ki at human AChE amounted to 199 ± 38 µM; at human BChE, 143 ± 22 µM.
In series [1], `Cc1ccc(/C=C/c2ccsc2/C=N/O)cc1` [trans,syn-18, (E)-3-((E)-4-methylstyryl)thiophene-2-carbaldehyde oxime] gave an IC50 at 24 h above 400 µM. Further, affinity at human AChE was put at a Ki of 59 ± 39 µM. Also, the “inhibition selectivity (AChE vs BChE)” value against human BChE is reported as “selective AChE inhibitors”.
As for `N#Cc1ccc(/C=C\c2ccsc2/C=N\O)cc1` [cis,anti-21, 4-((Z)-2-(2-((Z)-(hydroxyimino)methyl)thiophen-3-yl)vinyl)benzonitrile], 182 ± 13 µM corresponded to half-maximal inhibition in series [1] (IC50 at 24 h). The Ki was 187 ± 54 µM at human AChE and 53 ± 10 µM at human BChE.
The corresponding values for `O/N=C/c1ccc(/C=C\c2ccc(Cl)cc2)o1` [cis,syn-12, (E)-5-((Z)-4-chlorostyryl)furan-2-carbaldehyde oxime] are 226 ± 10 µM, 68 ± 37 µM and 147 ± 37 µM.
Consider `Cc1ccc(/C=C/c2ccoc2/C=N/O)cc1` [trans,syn-14, (E)-3-((E)-4-methylstyryl)furan-2-carbaldehyde oxime], for which, in series [1], the IC50 at 24 h was above 400 µM. The Ki at human BChE amounted to 122 ± 47 µM.
The corresponding values for `O/N=C\c1ccc(/C=C/c2ccco2)o1` [trans,anti-6, (Z)-5-((E)-2-(furan-2-yl)vinyl)furan-2-carbaldehyde oxime] are at least 400 µM and 123 ± 23 µM.
`Cc1ccccc1/C=C/c1oc2ccc3ccccc3c2c1/C=N/O` [trans,syn-9, (E)-2-((E)-2-methylstyryl)naphtho[2,1-b]furan-1-carbaldehyde oxime] had an IC50 at 24 h in series [1] above 400 µM. The Ki at human AChE worked out at 172 ± 29 µM; at human BChE, 303 ± 65 µM.
On to `O/N=C/c1occc1/C=C\c1ccc(Cl)cc1` [cis,syn-16, (E)-3-((Z)-4-chlorostyryl)furan-2-carbaldehyde oxime], for which, in the series with HepG2, the IC50 came to 65 ± 13 µM. The IC50 at 24 h in series [1] was at most 100 µM. The compound further showed an inhibition constant Ki at human BChE of 119 ± 44 µM.
In series [1], `O=[N+]([O-])c1ccc(-n2cc(C=NO)nn2)cc1` [compound 3, 1-(4-nitrophenyl)-1H-1,2,3-triazole-4-carbaldehyde oxime] registered an IC50 at 24 h above 400 µM. The Ki turned out to be 280 ± 30 µM at human AChE and 303 ± 66 µM on human BChE.
The compound `Cc1ccc(/C=C\c2ccsc2/C=N/O)cc1` [cis,syn-18, (E)-3-((Z)-4-methylstyryl)thiophene-2-carbaldehyde oxime] returned an IC50 at 24 h in series [1] of 269 ± 38 µM. At human BChE, this compound had an inhibition constant Ki of 86 ± 32 µM.
For `N#Cc1ccc(/C=C\c2ccoc2/C=N/O)cc1` [cis,syn-17, 4-((Z)-2-(2-((E)-(hydroxyimino)methyl)furan-3-yl)vinyl)benzonitrile], the 50% inhibitory concentration (IC50) in the series on HepG2 is 120 ± 6 µM. The half-inhibitory concentration (IC50) at 24 h in series [1] was at most 100 µM. Also, the Ki on human AChE is 544 ± 105 µM.
With `ON=Cc1cn(Cc2ccc(Cl)cc2)nn1` [compound 2, 1-(4-chlorobenzyl)-1H-1,2,3-triazole-4-carbaldehyde oxime], in series [1], the IC50 at 24 h was above 400 µM. The affinity on human AChE, expressed as Ki, was 267 ± 92 µM. At human BChE, the affinity, expressed as Ki, was 24 ± 2.9 µM and the “inhibition selectivity (AChE vs BChE)” value is reported as “selective BChE inhibitors”.
Regarding `Cc1ccc(/C=C\c2ccsc2/C=N\O)cc1` [cis,anti-18, (Z)-3-((Z)-4-methylstyryl)thiophene-2-carbaldehyde oxime], the 50% inhibitory concentration (IC50) at 24 h in series [1] is above 400 µM. The same compound returned a Ki on human BChE of 760 ± 122 µM.
As to `N#Cc1ccc(/C=C/c2ccoc2/C=N/O)cc1` [trans,syn-17, 4-((E)-2-(2-((E)-(hydroxyimino)methyl)furan-3-yl)vinyl)benzonitrile], the IC50 at 24 h in series [1] was above 400 µM. Moreover, on human AChE, the inhibitory constant (Ki) stood at 66 ± 24 µM. Further, at human BChE, the “inhibition selectivity (AChE vs BChE)” value is recorded as “selective AChE inhibitors”.
As to `Cc1ccc(/C=C/c2ccc(/C=N/O)o2)cc1` [trans,syn-10, (E)-5-((E)-4-methylstyryl)furan-2-carbaldehyde oxime], the IC50 with HepG2 worked out at 105 ± 4 µM. For the same compound, in series [1], the IC50 at 24 h is at most 100 µM. For the same compound, the Ki at human AChE is 111 ± 45 µM; at human BChE it was 38 ± 9.8 µM.
Regarding `ON=Cc1cn(Cc2ccc(F)cc2)nn1` [compound 1, 1-(4-fluorobenzyl)-1H-1,2,3-triazole-4-carbaldehyde oxime], the IC50 at 24 h in series [1] was above 400 µM. Moreover, the inhibition constant Ki at human AChE was 271 ± 29 µM; at human BChE, 503 ± 32 µM.
The corresponding values for `N#Cc1ccccc1/C=C\c1ccc(/C=N/O)s1` [cis,syn-5, 2-((Z)-2-(5-((E)-(hydroxyimino)methyl)thiophen-2-yl)vinyl)benzonitrile] are at least 400 µM, 112 ± 21 µM and 17 ± 2 µM.
The corresponding values for `Cc1ccc(/C=C\c2ccoc2/C=N/O)cc1` [cis,syn-14, (E)-3-((Z)-4-methylstyryl)furan-2-carbaldehyde oxime] are 182 ± 32 µM, 627 ± 245 µM and 93 ± 30 µM.
As for `Cc1ccc(/C=C/c2ccc(/C=N\O)o2)cc1` [trans,anti-10, (Z)-5-((E)-4-methylstyryl)furan-2-carbaldehyde oxime], the half-inhibitory concentration (IC50) at 24 h in series [1] was above 400 µM. The same compound yielded an inhibitory constant (Ki) on human AChE of 180 ± 40 µM.
The corresponding values for `O/N=C/c1occc1/C=C/c1ccc(Cl)cc1` [trans,syn-16, (E)-3-((E)-4-chlorostyryl)furan-2-carbaldehyde oxime] are above 400 µM and 217 ± 160 µM.
Compound `COc1ccc(/C=C/c2ccoc2/C=N\O)cc1` [trans,anti-15, (Z)-3-((E)-4-methoxystyryl)furan-2-carbaldehyde oxime] gave a 50% inhibitory concentration (IC50) at 24 h in series [1] above 400 µM. In addition, on human AChE, the “inhibition of human AChE (in words)” value is “poor inhibitors”. On human BChE, the “inhibition of human BChE (in words)” value is “poor inhibitors”.
As for `COc1ccc(/C=C\c2csc(/C=N/O)c2)cc1` [cis,syn-19′, (E)-4-((Z)-4-methoxystyryl)thiophene-2-carbaldehyde oxime], in series [1], the half-maximal inhibitory concentration (IC50) at 24 h was above 400 µM. In addition, the “inhibition of human AChE (in words)” value at human AChE is “poor inhibitors”. In addition, the “inhibition of human BChE (in words)” value against human BChE is on record as “poor inhibitors”.
